Key:
[1] = tested on: 41M ®/41M; experiment: Resistance factor 41M ®/41M; type: cell-based, human; settings: ratio of IC50 resistant to nonresistant line, ovarian
Experimental: (§1) Additional in vitro biological testing was conducted using cell lines derived from human carcinomas and maintained at the Institute of Cancer Research, Sutton, England (see C A Hills & colleagues, Br J Cancer 59, 527-34 (1989)). Monolayer cells were trypsinized and seeded in 96-well microtiter plates at a density of 1×10^4 cells/well in 200 μl of growth medium. Cells were incubated overnight and test compounds were added to triplicate wells at various concentrations for a total of 48 to 96 hours. For toxicity analysis after drug exposure, the cells were fixed with trichloroacetic acid and stained for cellular protein content by incubation for 30 minutes with 0.4% (wt/vol) sulforodamine B (SRB) dissolved in 1% acetic acid. The unbound dye was removed by 1% acetic acid washes, and the bound dye was extracted with 10 mM Tris buffer. The amount of dye in solution was quantified by absorbance at 564 nm.
(§2) In the Tables A and B below, all the cells are ovarian cancer cells with the exception of GCT27^R /GCT27 which are testicular. Table A gives IC50 values in μM; Table B gives Resistance Factors as a ratio of IC50 for a cell line bred to be resistant to cisplatin against IC50 for the nonresistant cell line.

[2] = tested on: A2780 ®/A2780; experiment: Resistance factor A2780 ®/A2780; type: cell-based, human; settings: ratio of IC50 resistant to nonresistant line, ovarian
Experimental: as §1, §2

[3] = tested on: CHI ®/CHI; experiment: Resistance factor CHI ®/CHI; type: cell-based, human; settings: ratio of IC50 resistant to nonresistant line, ovarian
Experimental: as §1, §2

[4] = tested on: GCT27 ®/GCT27; experiment: Resistance factor GCT27 ®/GCT27; type: cell-based, human; settings: ratio of IC50 resistant to nonresistant line, testicular
Experimental: as §1, §2

[5] = tested on: A2780; experiment: In vitro cytotoxicity (SRB), A2780; type: cell-based, human; settings: A2780, ovarian cancer, 48 to 96 hours
Experimental: as §1, §2

[6] = tested on: A2780 ®; experiment: In vitro cytotoxicity (SRB), A2780 ®; type: cell-based, human; settings: A2780 ® (cisplatin resistant), ovarian cancer, 48 to 96 hours
Experimental: as §1, §2

[7] = tested on: Adj/PC6; experiment: In vivo Adj/PC6 tumour test in mice (LD50, ED90, therapeutic index)
Experimental: The Adj/PC6 testing was carried out as described by P M Goddard et al presented in Sixth NCI-EORTC Symposium on New Drugs in Cancer Therapy 1989, which is a development of the basic method described by T A Connors et al, Chem Biol Interact 5, 415(1972). The in vivo L1210 tests were conducted according to the NCI protocol, Cancer Chemotherapy Reports, Part 3, vol 2, (Sept 1972) except that the animals used were DBA/2 mice and that dosing was carried out on days 1, 5 and 9. The animals were sacrificed when moribund. The compounds were administered parenterally (ip).
In the Adj/PC6 testing, LD50 and ED90 values in mg/kg body weight were determined in the conventional manner. The therapeutic index (TI) was calculated as the ratio of LD50 to ED90, and the results are shown below.
Additional tests were carried out in vivo using the compound of Example 2, against sensitive Adj/PC6 tumour cell lines, and against tumour cell lines resistant to various platinum anti-tumour agents, and a TI (Therapeutic Index) calculated, as described above.

[8] = tested on: SKOV-3; experiment: In vitro cytotoxicity (SRB), SKOV-3; type: cell-based, human; settings: SKOV-3, ovarian cancer, 48 to 96 hours
Experimental: as §1, §2

[9] = tested on: 41M; experiment: In vitro cytotoxicity (SRB), 41M; type: cell-based, human; settings: ovarian cancer, 48 to 96 hours
Experimental: as §1, §2

[10] = tested on: HX62; experiment: In vitro cytotoxicity (SRB), HX62; type: cell-based, human; settings: HX62, ovarian cancer, 48 to 96 hours
Experimental: as §1, §2

[11] = tested on: 41M ®; experiment: In vitro cytotoxicity (SRB), 41M ®; type: cell-based, human; settings: 41M ® (cisplatin resistant), ovarian cancer, 48 to 96 hours
Experimental: as §1, §2

[12] = tested on: CHI; experiment: In vitro cytotoxicity (SRB), CHI; type: cell-based, human; settings: ovarian cancer, 48 to 96 hours
Experimental: as §1, §2

[13] = tested on: PXN/94; experiment: In vitro cytotoxicity (SRB), PXN/94; type: cell-based, human; settings: PXN/94, ovarian cancer, 48 to 96 hours
Experimental: as §1, §2

[14] = tested on: CHI ®; experiment: In vitro cytotoxicity (SRB), CHI ®; type: cell-based, human; settings: CHI ® (cisplatin resistant), ovarian cancer, 48 to 96 hours
Experimental: as §1, §2

[15] = tested on: Adj/PC6/iproplatin res; experiment: In vivo Adj/PC6 iproplatin-resistant tumour test in mice; set-up: key to ED90: --: indicates 90% inhibition not achieved for doses up to LD50
Experimental: (§3) The animals were sacrificed when moribund. The compounds were administered parenterally (ip).

[16] = tested on: OVCAR-3; experiment: In vivo OVCAR-3 ovarian carcinoma xenograft; set-up: species or system mice; settings: delay in doubling of tumour volume vs control
Experimental: The "growth delay" was also measured which represents the delay in achieving a doubling of the tumour volume for the treated group compared to the control group.

[17] = tested on: Adj/PC6/tetraplatin res; experiment: In vivo Adj/PC6 tetraplatin-resistant tumour test in mice
Experimental: as §3

[18] = tested on: OVCAR-3; experiment: In vivo OVCAR-3 ovarian carcinoma xenograft; set-up: species or system mice; settings: tumour volume vs control
[19] = tested on: Adj/PC6/cisplatin res; experiment: In vivo Adj/PC6 cisplatin-resistant tumour test in mice; set-up: key to ED90: --: indicates 90% inhibition not achieved for doses up to LD50
Experimental: as §3

[20] = Adj/PC6, comparison with cis-isomer

Compound | Resistance Factor 41M ®/41M [1] | Resistance Factor A2780 ®/A2780 [2] | Resistance Factor CHI ®/CHI [3] | IC50 [5] [µM] | IC50 [6] [µM] | ED90 ([7]; Adj/PC6 testing, mice, ip) [mg/kg body weight] | LD50 ([7]; Adj/PC6 testing, mice, ip) [mg/kg body weight] | TI (therapeutic index, ratio of LD50 to ED90) ([7]; Adj/PC6 testing, mice, ip) | IC50 [8] [µM] | IC50 [9] [µM] | IC50 [10] [µM] | IC50 [11] [µM] | IC50 [12] [µM] | IC50 [13] [µM] | IC50 [14] [µM] | other results
N.N.[Cl][Pt][Cl] [Cisplatin, cis-[PtCl2 (NH3)2], reference compound] | 4.7 | 15.7 | 6.4 |  |  |  |  |  |  |  |  |  |  |  |  | Resistance Factor GCT27 ®/GCT27 [4]: 6.2
[NH2][Pt]([OH])([OH])([Cl])([Cl])[N]1CCOCC1 [EX 7, trans-[PtCl2 (OH)2 NH3 (morpholine)]] | 2.1 |  | 1.6 | 10.9 | 47 | 94 | 82 | < 1 | 47 | 26 | 100 | 54 | 17.3 | 50 | 28.3 | 
C1CN2CCC1CC2.[NH2][Pt]([OH])([OH])([Cl])[Cl] [EX 11, t-[PtCl2 (OH)2 NH3 (quinuclidine)]] |  |  |  | 3.2 | 16 |  |  |  | 27 | 14.4 | 40 | 9.5 | 10.2 |  | 14.3 | 
[NH2][Pt]([OH])([OH])([Cl])([Cl])[NH]Cc1ccccc1 [B, t[PtCl2 (OH2)NH3 (PhCH2 NH2)]] | 1.0 | 4.0 | 1.7 | 1.06 | 4.2 |  |  |  | 8.2 | 1.3 | 10.2 | 1.35 | 1.12 |  | 1.95 | 
t-[PtCl2 (OH)2 NH3 (exo-2-aminonorbornane)] | 1.0 |  | 1.2 |  |  | < 6.25 | 15.5 | > 2.5 | 4.4 | 1.4 | 5.6 | 1.47 | 1.4 | 3.2 | 1.7 | 
trans-[PtCl2 (OH)2 NH3 (C10 H21 NH2)] [EX 8] |  |  |  | 2.9 | 14.1 |  |  |  | 25 | 12 | 23 | 5.3 | 14 |  | 14.6 | 
ctc[PtCl2 (OH) NH3(c-C6 H11 NH2)] [Cis-isomer, reference compound] |  |  |  |  |  |  |  |  |  |  |  |  |  |  |  | ED90 [15]: --; LD50 [15]: 8.8 mg/kg; Growth Delay ([16]; 2 mg/kg): 4.3 days; Growth Delay ([16]; 4 mg/kg): 15.2 days; Growth Delay ([16]; 8 mg/kg): 5.5 days; ED90 [17]: 12 mg/kg; LD50 [17]: > 12.5 mg/kg; TI (Therapeutic Index) [17]: > 1; ED90 [7, 20]: 1.4 mg/kg; LD50 [7, 20]: 17.5 mg/kg; TI (Therapeutic Index) [7, 20]: 13; T/C (day 28) ([18]; 2 mg/kg): 0.636; T/C (day 28) ([18]; 4 mg/kg): 0.427; T/C (day 28) ([18]; 8 mg/kg): 0.599; ED90 [19]: --; LD50 [19]: 8.8 mg/kg
CC(C)(C)[NH][Pt]([NH2])([OH])([OH])([Cl])[Cl] [EX 4, trans-[PtCl2 (OH)2 NH3 (t-C4 H9 NH2)]] | 0.8 |  | 2.2 |  |  | 4.7 | 35 | 7.4 | 4.7 | 1.1 | 1.8 | 0.9 | 0.74 | 3 | 1.6 | 
[NH2][Pt]([OH])([OH])([Cl])([Cl])[NH]C1CCCC1 [EX 1, trans-[PtCl2 (OH)2 (NH3)(c-C5 H9 NH2)]] | 1.2 | 5.5 | 1.7 | 0.95 | 5.2 |  |  |  | 7 | 1.1 | 10.2 | 1.3 | 1.15 |  | 1.9 | 
CC[N](CC)[Pt]([NH2])([OH])([OH])([Cl])[Cl] [EX 10, t-[PtCl2 (OH)2 NH3 (Et2 NH)]] |  |  |  | 1.9 | 11.6 |  |  |  | 12.1 | 1.8 | 3.2 | 0.8 | 3.3 |  | 4.6 | 
C[NH][Pt]([NH2])([OH])([OH])([Cl])[Cl] [EX 6, trans-[PtCl2 (OH)2 NH3 (MeNH2)]] | 6.1 | 10.3 | 2.4 | 6.2 | 64 |  |  |  | 72 | 5.4 | 110 | 33 | 12.5 |  | 30.5 | 
CC(C)[NH][Pt]([NH2])([OH])([OH])([Cl])[Cl] [EX 3, trans-[PtCl2 (OH)2 (NH3)((CH3)2 CHNH2)]] | 1.4 |  | 2.3 |  |  | 10.5 | 18 | 1.7 | 9.2 | 3.2 | 14 | 4.6 | 2.4 | 8.3 | 5.5 | 

From US5194645A, “Trans-Pt (IV) compounds” (Johnson Matthey Public Limited Company, priority 1991, dated 1993)
